Experimental data: patent US20070037736A1, “Therapeutic composition comprising the KAL protein and use of the KAL protein for the treatment of retinal, renal, neuronal and neural injury” (INSTITUT PASTEUR, priority 1997, published 2007)

Key:
[1] = system: P5 cerebellar granule cells; assay: Adhesion assay, colorimetric, relative to poly-L-lysine; assay type: cell-based, mouse; details: 1 hour
Description: (§1) Adhesion assays were performed as described in (à compléter) with some modifications. Coating with the various molecules, at the indicated concentrations in 0.5 ml PBS, was performed in plastic 24-well multidishes (Nunclon™) at 37° C. (1 h or overnight).The cells were then washed three times with PBS, coating blocked with 1% heat-inactivated BSA (à compléter) for at least 1 h at 37° C., followed by three PBS washes, before addition of the cells (10^6 cells per ml in serum-free medium containing 0.1% heat-inactivated BSA). In standard experiments, purified KAL was applied at 3 μg/ml. Other substrates were used as control, fibronectin (20% g/ml) and poly-L-lysine (100 μg/ml).
(§2) Cells were incubated for 30 min to 1 h on coated wells. Medium was then aspirated and unbound cells removed by one wash with PBS. The adherent cells were fixed with […] paraformaldehyde (PFA) in PBS and stained with 0.1% crystal violet. Quantification of the attached cells was performed using a colorimetric method (à compléter). Data are expressed as the percentage of adherent cells on each tested substrate with reference to poly-L-lysine. Assays in triplicate were repeated in three independent experiments.

[2] = system: CHO-K1 cells; assay: Adhesion and inhibition assay, colorimetric; assay type: cell-based, Chinese Hamster
Description: as §1, §2
Heparin, heparan sulfate or chondroitin sulfate (up to 1 mg/ml in PBS) was added in KAL-coated-BSA-saturated wells, and allowed to interact for 2 h at 37° C. […]

[3] = system: CHO-677 cells; assay: Adhesion assay with HS-deficient mutant cells; assay type: cell-based, Chinese Hamster
Excerpt: The parental CHO cell line and the human KAL-transfected CHO clones (1-1 and 2-3) were cultivated in DMEM medium supplemented with 8% fetal calf serum (PAA, Jacques Boy, France). • Cells from the olfactory neuronal line 13.S.1.24 also named “line 24” (kindly provided by Dr. Astic, Lyon, France) were cultivated in DMEM supplemented with 10% calf serum. Porcine kidney epithelial cells (LLCPK) ATCC NO CRL1392 • Mouse GnRH neurons (GT1, subclone 1) • Wild-type CHO-K1, mutant CHO-K1-677 (Lidholt K. et al., 1992) and CHO-K1-606 (Bame et al., 1994) cell lines were provided to us by Dr. Esko, the mutant CHO-K1-745 (Esko et al., 1987) cell line was obtained from ATCC. The CHO-K1-677 cells display undetectable levels of heparan-sulfate (HS), but synthesize chondroitin sulfate (CS) at a level 3 times higher than wild-type CHO-K1 cells. The CHO-K1-606 cells express HS and CS at levels similar to those observed in wild-type, but HS is 2 to 3 times less sulfated than in wild-type cells. The CHO-K1-745 cells, deficient in xylosyltransferase, synthesize neither HS nor CS (Esko et al., 1987). Wild-type and mutant CHO-K1cells were maintained in Ham F12 medium supplemented with 10% fetal calf serum.
as §1, with “Other substrates were used as control, fibronectin (20% g/ml) and poly-L-lysine (100 μg/ml).” left out
(§3) Cells were incubated for 30 min to 1 h on coated wells. […] Quantification of the attached cells was performed using a colorimetric method (à compléter). Data are expressed as the percentage of adherent cells on each tested substrate with reference to poly-L-lysine. […]

[4] = system: olfactory neurons (line 24); assay: Adhesion and peptide/serum inhibition assay, colorimetric; assay type: cell-based, rat; details: for percentage of olfactory neurons (line 24) adherent on substrate: substrate coated to microtiter wells
Description: as §1, §2
(§4) A 32 aminoacid peptide (32R1-FIG. 24) was synthesized (Syntiem laboratory). Control peptides were C17 (NH2CSLVPTKKKRRKTTDGF-COON) (SEQ ID NO:7) derived from the second fibronectin type III repeat of human KAL and C 16V (NHzCGSYANNNRYGRDPPTSV-000H), (SEQ ID NO:8) derived from the EYA1 protein (a completer). The peptides, at various concentrations (10 to 30 μg/ml), were directly adsorbed on polystyrene microtiter wells (Immulon 4, Nunc). Adhesion assays were performed as described above.
In peptide inhibition assays, cells were preincubated with the peptides at different concentrations (10 to 100 μg/ml) for 1 h at 4° C., then plated to KAL-coated wells, and incubated for a further 30 min period of time.

[5] = system: olfactory neurons (line 24); assay: Spreading and neurite growth on coated substrates; assay type: cell-based, rat; details: for mean neurite length per olfactory neuron: mean ± SEM
Description: FIG. 28: Mean neurite length on the different substrates after one hour, two hours and eight hours in vitro. Mean value±SEM. More than 100 neurons were analyzed in each experimental condition.
Cells, in serum-free medium containing 0.1% heat inactivated BSA were seeded on KAL- or laminin-coated wells, and maintained for 20 min to 22 h at 37° C. Adherent cells were fixed, stained with toluidine blue, and photographied with an inverted microscope.

[6] = system: PC12 cells; assay: Adhesion and inhibition assay, colorimetric; assay type: cell-based, rat; details: data not shown
Description: as §1, §2
Cells were incubated for 5 min at room temperature in HBSS containing 5 mM EDTA, washed once with HBSS and preincubated for 1 h at 4° C. in HBSS containing 0.1% BSA in the absence or in the presence of Ca^++ and/or Mg^++ prior plating.
Heparin, heparan sulfate or chondroitin sulfate (up to 1 mg/ml in PBS) was added in KAL-coated-BSA-saturated wells, and allowed to interact for 2 h at 37° C. After three washings with PBS, CHO-K1or PC12 cells were plated, and incubated as usual.
as §4, with “Adhesion assays were performed as described above.” left out

[7] = system: PC12 cells; assay: Adhesion assay on coated wells, cell counter; includes antibody, heparin and R1-FNIII inhibition; assay type: cell-based, rat
Description: (§5) 24-well microtiter plates were coated at 37 °C overnight with 20 μg/ml of laminin, 5μg/ml of KAL in PBS, pH=7.4. The plates were washed twice with PBS and non specific sites were blocked by the addition of 1% BSA in PBS for 1 hour at 37° C. Wells were washed twice with PBS. Cerebellar neurons or PC12 cells were resuspended in DMEM to a final concentration of 10^6 cells/ml. 500 μl of this suspension was added to each coated well. Cells were also added to control wells that had been coated with BSA alone. Plates were incubated at 37° C. for 90 min in a 5% CO2 humidified atmosphere. The wells were washed gently twice with 0.5 ml PBS. To remove adherent cells from the wells, 0.5 ml of 0.05% trypsin-EDTA were added to each well. After 10 min at 37 °C, the 0.5 ml of trypsin-EDTA containing the detached cells were removed and the number of cells was determined by using a cell counter (Coutler, ZM equipped with a Coultronic 256 channelizer).
(§6) Each cell adhesion assay was carried out in triplicate. The ration of adherent cells with respect to the total number of cell ×100 was determined as the % of cell adhesion.
For inhibition of cell adhesion, 5 ×10^5 PC12 cells were deposited on areas previously coated with KAL and with antiserum directed against the human KAL protein at different concentrations and treated as described for adhesion assay. […]

[8] = system: cerebellar granule neurons (aggregates); assay: Survival and neurite outgrowth of granule cell aggregates on coated substrates; assay type: cell-based, mouse; details: 48 hours culture
Description: Reaggregate cultures of cerebellar neurons from mice on postnatal day-5 were prepared according to Gao et al. (1995). After dissociation, cells were further purified by preplating on a poly-L-Lysine treated (25 μg/ml) substrate for 30 min and plated in uncoated 96-well dishes (5 10^5 cells/well) in BME plus 10% horse serum, 5% fetal calf serum, 9 mg/ml glucose, 0.3 mg/ml glutamine, 50 U/ml penicillin and 0.1 mg/ml streptomycin. Aggregates (100-200 cells) were harvested after 24 h to be used in coculture experiments.
prepared as described in the Materials and Methods section. Cerebellar granule neurons were seeded on surfaces that had been coated with KAL protein. Polylysine and bovine serum albumin (BSA) were used as positive and negative controls respectively.

[9] = system: CHO-745 cells; assay: Adhesion assay with HS- and CS-deficient mutant cells; assay type: cell-based, Chinese Hamster; details: KAL substrate
Excerpt: (§7) The parental CHO cell line and the human KAL-transfected CHO clones (1-1 and 2-3) were cultivated in DMEM medium supplemented with 8% fetal calf serum (PAA, Jacques Boy, France). • Cells from the olfactory neuronal line 13.S.1.24 also named “line 24” (kindly provided by Dr. Astic, Lyon, France) were cultivated in DMEM supplemented with 10% calf serum. Porcine kidney epithelial cells (LLCPK) ATCC NO CRL1392 • Mouse GnRH neurons (GT1, subclone 1) • Wild-type CHO-K1, mutant CHO-K1-677 (Lidholt K. et al., 1992) and CHO-K1-606 (Bame et al., 1994) cell lines were provided to us by Dr. Esko, the mutant CHO-K1-745 (Esko et al., 1987) cell line was obtained from ATCC. The CHO-K1-677 cells display undetectable levels of heparan-sulfate (HS), but synthesize chondroitin sulfate (CS) at a level 3 times higher than wild-type CHO-K1 cells. The CHO-K1-606 cells express HS and CS at levels similar to those observed in wild-type, but HS is 2 to 3 times less sulfated than in wild-type cells. The CHO-K1-745 cells, deficient in xylosyltransferase, synthesize neither HS nor CS (Esko et al., 1987). […]
as §3

[10] = system: CHO-606 cells; assay: Adhesion assay with mutant cells expressing undersulfated HS; assay type: cell-based, Chinese Hamster; details: KAL substrate, versus wild-type CHO-K1
Excerpt: as §7, §3

[11] = system: cerebellar granule cells; assay: Adhesion assay on coated wells, adherent cells counted with a cell counter (% of total cells); assay type: cell-based, mouse; details: coated dishes, 90 minute incubation
Description: Cerebellar cell cultures. Dissociated cell cultures were obtained from Swiss mouse cerebella on postnatal day 5. At this age, granule cells account for up to 90% of the total cell population, glial cells included. Cells were dissociated by combined trituration and trypsinisation, and grown in chemically defined medium DMEM/Ham's F12 (3 vol/1 vol) containing 0.2 mM glutamine, 5 μg/ml insulin, 100 μg/ml tranferrin, 20 nM progesterone, […] purrescine, 30 nM selenium 100 U/ml penicillin and 0.1 mg/ml streptomycin.
as §5, with “Cells were also added to control wells that had been coated with BSA alone. Plates were incubated at 37° C. for 90 min in a 5% CO2 humidified atmosphere. The wells were washed gently twice with 0.5 ml PBS. To remove adherent cells from the wells, 0.5 ml of 0.05% trypsin-EDTA were added to each well.” left out
as §6

laminin [reference compound]
percentage of cell adhesion relative to PLL substrate (set as 100%) [1]: 50%

chondroitinase ABC
decrease of adhesion of CHO-K1 cells on KAL after enzyme treatment ([2]; cells treated prior plating): about 50% | effect of enzyme treatment of CHO-677 cells on adhesion on fibronectin substrate ([3]; data not shown): did not affect adhesion | effect of enzyme treatment of CHO-677 cells on adhesion to KAL ([3]; increasing concentrations, prior plating): virtually complete inhibition

NHz-RPSRWYQFRVAAVNVHGTRGFTAPSKHFRSSK-000H [32R1]
effect of preincubation with peptide on adhesion to fibronectin and laminin substrates [4]: had no effect | concentration of peptide giving complete inhibition of adhesion to KAL substrate ([4]; cells preincubated with peptide): 26 µM | percentage of olfactory neurons (line 24) adherent on substrate [4]: 80% | mean neurite length per olfactory neuron ([5]; eight hours after plating): 63 (±2) μm | mean neurite length per olfactory neuron ([5]; one hour on substrate): 32 (±4) μm | adhesion of PC12 cells on peptide substrate ([6]; compared with olfactory neurons): same results

heparin
inhibition of CHO-K1 cell adhesion on KAL ([2]; KAL-coated wells preincubated with 100 μg/ml): approximately 50% | heparin concentration from which adhesion of PC12 cells to KAL protein was inhibited ([7]; heparin present in KAL-coated wells): ≥ 0.03 mg/mL | inhibition of PC12 cell adhesion on KAL ([6]; HS or CS pretreatment of KAL-coated wells): 50%

fibronectin [reference compound]
mean neurite length per olfactory neuron ([5]; eight hours after plating): 63 (±2,5) μm | mean neurite length per olfactory neuron ([5]; one hour on substrate): 46 (±4) μm

O=C(O)CN(CCN(CC(=O)O)CC(=O)O)CC(=O)O [EDTA]
effect of chelating Ca++ and Mg++ on adhesion of PC12 cells to KAL ([6]; cells incubated with EDTA for 5 minutes prior plating): did not modified the amount of adhering cells

NHzCGSYANNNRYGRDPPTSV-000H [C16V, reference compound]
percentage of olfactory neurons (line 24) adherent on substrate [4]: no adhesion

NH2CSLVPTKKKRRKTTDGF-COON [17R2, reference compound]
effect of preincubation with peptide on adhesion to KAL ([4]; 50 μM): had no effect | percentage of olfactory neurons (line 24) adherent on substrate [4]: no adhesion

B1: KAL protein: recombinant human KAL gene product (680 aa, SwissProt P23352) purified from transfected CHO cells CHKAL2-3/d11 (protein)
chain: AGPGAAAARRLDESLSAGSVQRAPCASRCLSLQITRISAFFQHFQNNGSLVWCQNHKQCSKCLEPCKESGDLRKHQCQSFCEPLFPKKSYECLTSCEFLKYILLVKQGDCPAPEKASGFAAACVESCEVDNECSGVKKCCSNGCGHTCQVPKTLYKGVPLKPRKELRFTELQSGQLEVKWSSKFNISIEPVIYVVQRRWNYGIHPSEDDATHWQTVAQTTDERVQLTDIRPSRWYQFRVAAVNVHGTRGFTAPSKHFRSSKDPSAPPAPANLRLANSTVNSDGSVTVTIVWDLPEEPDIPVHHYKVFWSWMVSSKSLVPTKKKRRKTTDGFQNSVILEKLQPDCDYVVELQAITYWGQTRLKSAKVSLHFTSTHATNNKEQLVKTRKGGIQTQLPFQRRRPTRPLEVGAPFYQDGQLQVKVYWKKTEDPTVNRYHVRWFPEACAHNRTTGSEASSGMTHENYIILQDLSFSCKYKVTVQPIRPKSHSKAEAVFFTTPPCSALKGKSHKPIGCLGEAGHVLSKVLAKPENLSASFIVQDVNITGHFSWKMAKANLYQPMTGFQVTWAEVTTESRQNSLPNSIISQSQILPSDHYVLTVPNLRPSTLYRLEVQVLTPGGEGPATIKTFRTPELPPSSAHRHLKHRHPHHYKPSPERY
percentage of cell adhesion relative to PLL substrate (set as 100%) [1]: 80% | percentage of olfactory neurons (line 24) adherent on substrate [4]: 70% | survival and neurite outgrowth of granule cell aggregates on coated surface [8]: large halo of neuritic processes | adhesion of CHO-745 cells on the substrate [9]: No adhesion | adhesion of CHO-606 cells to the substrate [10]: comparable to that found in wild-type | percentage of adherent cells relative to the total number of cells deposited [11]: 80% | concentration of KAL protein giving maximum percentage of cell adhesion ([7]; coating concentration, results not shown, cell type not specified): 5 µg/mL | stimulation of neurite elongation by comparison with fibronectin and peptide 32R1 ([5]; eight hours after plating): 30% | mean neurite length per olfactory neuron ([5]; eight hours after plating): 81 (±5) μm | mean neurite length per olfactory neuron ([5]; one hour on substrate): 66 (±2,5) μm | decrease of adhesion of CHO-677 cells compared to wild-type CHO-K1 cells ([3]; KAL substrate): about 70%
